Laboratory results published in the supplement of paper PMC10307832.

Legend:
Test in all cases: relative viability (nuclei count vs DMSO), 5 days (fraction); higher = more cells survive
[1] = compound: COC1=CC=C(C=C1)CN2C=CC3=C2C=C(C=C3)C(=O)NO + CC(=O)Nc1cccc(-n2c(=O)n(C3CC3)c(=O)c3c(Nc4ccc(I)cc4F)n(C)c(=O)c(C)c32)c1 [Trametinib] (partner 0.02 µM)
How it was run: (§1)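 Lung cancer cell lines were seeded in 1536-well plates and dosed by pin tool the next day, with either a single drug or a fixed anchor-drug dose combined with five library-drug doses (not always all listed) spaced in √10 steps. Five days later, one step fixed the cells and stained their nuclei (final 0.05% Triton X-100, 1% formaldehyde, 1 ug/ml Hoechst), and nuclei were counted on 4× images. Relative viability is the nuclei count in treated wells divided by the count in vehicle wells, and each value is the median of duplicate plates.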

[2] = compound: COC1=CC=C(C=C1)CN2C=CC3=C2C=C(C=C3)C(=O)NO + CS(=O)(=O)N1CCN(Cc2cc3nc(-c4cccc5[nH]ncc45)nc(N4CCOCC4)c3s2)CC1 [Pictilisib] (partner 1 µM)
How it was run: as §1

[3] = compound: COC1=CC=C(C=C1)CN2C=CC3=C2C=C(C=C3)C(=O)NO + NC(=O)Nc1cc(-c2cccc(F)c2)sc1C(=O)N[C@H]1CCCNC1 [AZD7762] (partner 0.2 µM)
How it was run: as §1

Veliparib + Phenformin = compound: C[C@]1(c2nc3c(C(N)=O)cccc3[nH]2)CCCN1 [Veliparib] + N=C(N)NC(=N)NCCc1ccccc1 [Phenformin] (partner 250 µM)
How it was run: as §1

| Cell Line | relative viability ([1]; first compound 0.08 µM) | relative viability ([1]; first compound 0.253 µM) | relative viability ([1]; first compound 0.8 µM) | relative viability ([1]; first compound 2.53 µM) | relative viability ([1]; first compound 8 µM) | relative viability ([2]; first compound 0.08 µM) | relative viability ([2]; first compound 0.253 µM) | relative viability ([2]; first compound 0.8 µM) | relative viability ([2]; first compound 2.53 µM) | relative viability ([2]; first compound 8 µM) | relative viability ([3]; first compound 0.08 µM) | relative viability ([3]; first compound 0.253 µM) | relative viability ([3]; first compound 0.8 µM) | relative viability ([3]; first compound 2.53 µM) | relative viability ([3]; first compound 8 µM) | relative viability (Veliparib + Phenformin; first compound 0.02 µM) | relative viability (Veliparib + Phenformin; first compound 0.06325 µM) | relative viability (Veliparib + Phenformin; first compound 0.2 µM) | relative viability (Veliparib + Phenformin; first compound 0.6325 µM) | relative viability (Veliparib + Phenformin; first compound 2 µM) |
| --- | --- | --- | --- | --- | --- | --- | --- | --- | --- | --- | --- | --- | --- | --- | --- | --- | --- | --- | --- | --- |
| NCI-H23 | 0.298 | 0.445 | 0.397 | 0.381 | 0.283 | 0.275 | 0.538 | 0.49 | 0.559 | 0.349 | 0.257 | 0.312 | 0.32 | 0.271 | 0.154 | 0.851 | 0.73 | 0.762 | 0.756 | 0.833 |
| Calu-6 | – | – | – | – | – | 0.426 | 0.946 | 0.981 | 0.969 | 0.826 | – | – | – | – | – | – | – | – | – | – |
| NCI-H1623 | – | – | – | – | – | – | – | – | – | – | – | – | – | – | – | – | 0.514 | 0.605 | 0.583 | 0.545 |
| LC-2-ad | 0.841 | 0.899 | 0.882 | 0.938 | 0.991 | 0.437 | 0.597 | 0.547 | 0.439 | 0.427 | 0.905 | 0.874 | 0.865 | 0.898 | 0.835 | – | 0.551 | 0.631 | 0.589 | 0.472 |
| HARA | – | 0.607 | 0.668 | 0.849 | 0.705 | 0.467 | 0.492 | 0.403 | 0.43 | 0.33 | – | 0.588 | 0.397 | 0.251 | 0.202 | 0.412 | 0.399 | 0.48 | 0.409 | 0.474 |
| NCI-H1993 | 0.526 | 0.564 | 0.518 | 0.514 | 0.543 | 0.717 | 0.0552 | 0.772 | 0.837 | 0.756 | 0.746 | 0.745 | 0.857 | 0.8 | 0.85 | 0.568 | 0.567 | 0.561 | 0.552 | 0.482 |
| SK-MES-1 | 0.549 | 0.551 | 0.549 | 0.586 | 0.575 | 0.343 | 0.384 | 0.368 | 0.36 | 0.332 | – | – | – | – | – | 0.707 | 0.626 | 0.628 | 0.599 | 0.663 |
| NCI-H2023 | 0.478 | 0.594 | 0.474 | 0.589 | 0.48 | 0.105 | 0.239 | 0.227 | 0.236 | 0.202 | – | – | – | – | – | 0.39 | 0.417 | 0.39 | 0.384 | 0.411 |
| EMC-BAC-2 | 0.629 | – | 0.971 | 0.95 | 0.803 | 0.448 | 0.549 | 0.555 | 0.553 | 0.466 | 0.878 | – | 1.22 | 1.11 | 1 | 0.442 | 0.532 | 0.609 | 0.484 | 0.575 |
| H3255 | 0.593 | 0.608 | 0.618 | 0.672 | 0.547 | 0.428 | 0.411 | 0.416 | 0.436 | 0.467 | 0.925 | 0.774 | 0.831 | 0.843 | 0.744 | 0.365 | 0.367 | 0.36 | 0.322 | 0.329 |
| SK-LU-1 | 0.347 | 0.537 | 0.51 | 0.579 | 0.447 | 0.468 | 0.586 | 0.613 | 0.517 | 0.505 | – | – | – | – | – | 0.588 | 0.524 | 0.544 | 0.512 | 0.506 |
| BEN | 0.936 | 1.03 | 0.942 | 0.889 | 0.961 | 0.504 | 0.589 | 0.582 | 0.544 | 0.499 | 0.628 | 0.507 | 0.628 | 0.594 | 0.549 | 0.24 | 0.251 | 0.292 | 0.253 | 0.25 |
| NCI-H727 | 0.418 | 0.383 | 0.377 | 0.37 | 0.371 | 0.344 | 0.299 | 0.553 | 0.306 | 0.488 | 0.653 | 0.538 | 0.57 | 0.503 | 0.654 | 0.481 | 0.443 | 0.549 | 0.483 | 0.521 |
| NCI-H1755 | 0.711 | 0.77 | 0.791 | 0.758 | 0.753 | 0.267 | 0.458 | 0.51 | 0.383 | 0.363 | 0.395 | 0.439 | 0.497 | 0.516 | 0.35 | 0.637 | 0.629 | 0.631 | 0.518 | 0.608 |
| NCI-H1944 | – | 0.415 | 0.449 | 0.421 | 0.429 | – | 0.37 | 0.317 | 0.357 | 0.322 | – | 0.516 | 0.481 | 0.475 | 0.428 | 0.211 | 0.188 | 0.207 | 0.197 | 0.204 |
| NCI-H322M | – | – | 0.493 | 0.495 | 0.485 | – | 0.542 | 0.544 | 0.501 | 0.45 | – | – | 0.579 | 0.668 | 0.491 | – | 0.641 | 0.814 | 0.724 | 0.747 |
| NCI-H647 | 0.481 | 0.365 | 0.493 | 0.669 | 0.439 | – | 0.42 | 0.523 | 0.373 | 0.308 | – | 0.437 | 0.495 | 0.361 | 0.369 | 0.438 | 0.405 | 0.563 | 0.505 | 0.597 |
| LXF-289 | – | 0.698 | 0.712 | 0.677 | 0.677 | 0.309 | 0.779 | 0.754 | 0.799 | 0.723 | – | 1.06 | 1.04 | 1.07 | 1.02 | 0.521 | 0.52 | 0.533 | 0.499 | 0.539 |
| HCC-827 | 0.539 | 0.537 | 0.528 | 0.533 | 0.514 | 0.934 | 0.921 | 1.07 | 1.15 | 0.927 | 0.228 | 0.259 | 0.159 | 0.218 | 0.196 | 0.357 | 0.396 | 0.43 | 0.368 | 0.387 |
